ChEMBL document CHEMBL1150971, “Crystal structures of catalytic subunit of cAMP-dependent protein kinase in complex with isoquinolinesulfonyl protein kinase inhibitors H7, H8, and H89. Structural implications for selectivity” (J Biol Chem, 1996)

Tests used:
[1] = molecular target: Myosin light chain kinase, smooth muscle (Gallus gallus, UniProt P11799); assay: Inhibitory constant against MLCK
[2] = molecular target: Protein kinase C (PKC); assay: Inhibitory constant against PKC; assay type: protein assay, Oryctolagus cuniculus
[3] = molecular target: cAMP-dependent protein kinase alpha-catalytic subunit (Oryctolagus cuniculus, UniProt Q95J97); assay: Inhibitory constant against cAPK (PKA)
[4] = Inhibitory constant against cGPK (PKG); parameters: species or system Sus scrofa
[5] = molecular target: Casein kinase II (Homo sapiens, UniProt P19784+P67870+P68400); assay: Inhibitory constant against CK2; assay type: protein-complex assay, Oryctolagus cuniculus
Sequence of Casein kinase II (P67870 whole entry): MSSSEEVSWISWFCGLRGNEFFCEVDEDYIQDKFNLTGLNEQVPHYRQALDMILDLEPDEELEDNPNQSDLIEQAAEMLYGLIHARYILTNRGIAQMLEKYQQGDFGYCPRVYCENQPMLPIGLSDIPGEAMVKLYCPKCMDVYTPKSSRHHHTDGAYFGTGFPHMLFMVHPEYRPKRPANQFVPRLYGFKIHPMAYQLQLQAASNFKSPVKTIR
Sequence of Casein kinase II (P68400 whole entry): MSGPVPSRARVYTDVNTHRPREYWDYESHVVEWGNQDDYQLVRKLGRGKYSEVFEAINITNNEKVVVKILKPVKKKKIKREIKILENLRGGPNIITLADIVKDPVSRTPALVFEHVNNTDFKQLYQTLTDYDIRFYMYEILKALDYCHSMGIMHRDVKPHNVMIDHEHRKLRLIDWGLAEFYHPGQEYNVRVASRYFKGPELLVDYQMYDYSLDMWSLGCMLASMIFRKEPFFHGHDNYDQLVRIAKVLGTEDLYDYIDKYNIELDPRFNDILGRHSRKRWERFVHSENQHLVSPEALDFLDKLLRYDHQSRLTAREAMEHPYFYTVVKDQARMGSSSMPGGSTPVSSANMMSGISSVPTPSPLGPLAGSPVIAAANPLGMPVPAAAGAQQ
Sequence of Casein kinase II (P19784 whole entry): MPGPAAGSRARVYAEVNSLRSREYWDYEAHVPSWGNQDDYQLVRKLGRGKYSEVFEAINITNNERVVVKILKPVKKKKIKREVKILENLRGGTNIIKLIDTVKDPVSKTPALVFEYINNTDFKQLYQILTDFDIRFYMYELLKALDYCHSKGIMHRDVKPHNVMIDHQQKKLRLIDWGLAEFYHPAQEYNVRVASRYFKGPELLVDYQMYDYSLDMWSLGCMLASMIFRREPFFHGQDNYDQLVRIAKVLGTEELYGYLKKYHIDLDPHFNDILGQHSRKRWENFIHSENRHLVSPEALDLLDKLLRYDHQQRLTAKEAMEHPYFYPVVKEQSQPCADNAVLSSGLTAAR

[6] = Inhibitory constant against CK1; parameters: species or system Rattus norvegicus

Sequence of Myosin light chain kinase, smooth muscle (P11799 whole entry): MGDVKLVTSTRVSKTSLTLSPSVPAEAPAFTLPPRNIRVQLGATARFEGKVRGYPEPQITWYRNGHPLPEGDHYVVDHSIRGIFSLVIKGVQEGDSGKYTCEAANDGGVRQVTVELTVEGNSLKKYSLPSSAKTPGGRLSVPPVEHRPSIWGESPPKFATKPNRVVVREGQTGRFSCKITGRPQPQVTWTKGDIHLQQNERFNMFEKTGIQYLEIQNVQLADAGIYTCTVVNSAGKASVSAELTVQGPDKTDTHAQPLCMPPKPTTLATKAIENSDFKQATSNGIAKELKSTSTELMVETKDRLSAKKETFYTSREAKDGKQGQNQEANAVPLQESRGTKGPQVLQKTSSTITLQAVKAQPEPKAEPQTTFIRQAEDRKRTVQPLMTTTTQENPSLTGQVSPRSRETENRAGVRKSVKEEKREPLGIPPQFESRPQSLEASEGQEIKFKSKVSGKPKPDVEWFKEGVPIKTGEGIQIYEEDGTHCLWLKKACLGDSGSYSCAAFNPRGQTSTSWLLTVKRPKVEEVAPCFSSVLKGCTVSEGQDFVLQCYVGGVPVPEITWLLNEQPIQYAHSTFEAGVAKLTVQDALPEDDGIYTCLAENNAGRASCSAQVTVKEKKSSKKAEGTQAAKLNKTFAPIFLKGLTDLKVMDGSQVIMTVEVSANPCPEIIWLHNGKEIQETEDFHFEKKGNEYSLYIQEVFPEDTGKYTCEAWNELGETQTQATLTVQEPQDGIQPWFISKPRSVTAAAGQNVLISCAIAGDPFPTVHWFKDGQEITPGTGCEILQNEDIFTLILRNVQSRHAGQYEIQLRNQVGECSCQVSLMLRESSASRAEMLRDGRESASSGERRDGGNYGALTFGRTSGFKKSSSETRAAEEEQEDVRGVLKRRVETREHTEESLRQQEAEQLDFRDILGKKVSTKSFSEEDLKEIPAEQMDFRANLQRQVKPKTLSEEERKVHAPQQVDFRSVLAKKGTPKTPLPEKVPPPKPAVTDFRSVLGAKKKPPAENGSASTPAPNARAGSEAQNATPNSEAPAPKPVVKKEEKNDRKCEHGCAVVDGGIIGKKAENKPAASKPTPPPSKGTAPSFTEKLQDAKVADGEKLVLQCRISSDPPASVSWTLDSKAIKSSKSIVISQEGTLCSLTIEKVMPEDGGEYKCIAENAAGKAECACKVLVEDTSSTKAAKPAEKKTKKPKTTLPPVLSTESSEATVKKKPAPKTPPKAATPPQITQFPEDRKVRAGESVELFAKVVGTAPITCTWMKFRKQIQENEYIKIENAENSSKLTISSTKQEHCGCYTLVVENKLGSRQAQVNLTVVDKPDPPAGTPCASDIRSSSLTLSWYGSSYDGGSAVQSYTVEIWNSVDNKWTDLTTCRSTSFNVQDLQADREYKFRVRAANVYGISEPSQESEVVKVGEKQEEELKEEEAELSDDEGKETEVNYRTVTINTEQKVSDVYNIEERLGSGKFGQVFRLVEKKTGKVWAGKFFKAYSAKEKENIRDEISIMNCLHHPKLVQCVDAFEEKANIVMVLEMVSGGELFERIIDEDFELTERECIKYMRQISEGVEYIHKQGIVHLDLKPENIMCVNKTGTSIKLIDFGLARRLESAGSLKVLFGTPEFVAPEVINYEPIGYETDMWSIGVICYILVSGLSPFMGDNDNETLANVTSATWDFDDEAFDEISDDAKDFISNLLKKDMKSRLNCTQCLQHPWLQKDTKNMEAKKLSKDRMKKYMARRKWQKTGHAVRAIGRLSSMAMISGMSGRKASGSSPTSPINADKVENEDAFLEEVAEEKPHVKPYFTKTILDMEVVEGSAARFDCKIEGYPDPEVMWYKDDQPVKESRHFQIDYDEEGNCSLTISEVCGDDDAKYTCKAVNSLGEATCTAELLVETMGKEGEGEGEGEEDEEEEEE

Row | SMILES | Ki [1] | Ki [2] | Ki [3] | Ki [4] | Ki [5] | Ki [6]
1 | O=S(=O)(NCCNC/C=C/c1ccc(Br)cc1)c1cccc2cnccc12 | 28.3 µM |  |  |  |  | 
2 | CNCCNS(=O)(=O)c1cccc2cnccc12 | 68 µM | 15 µM | 1.2 µM | 0.48 µM | 950 µM | 133 µM
3 | C[C@H]1CNCCN1S(=O)(=O)c1cccc2cnccc12 | 97 µM | 6 µM |  | 5.8 µM | 780 µM | 100 µM
